Data reported in PubChem BioAssay AID1361 (SRMLSC, 2008).
Activity calls are given as the source filed them. How the calls were made is not given here.

Assay: mitochondrial fusion inhibitors, confirmation, cell-based, chemical genetic, wild-type and mutant (AID 1361)
Settings: Cell-based mitochondrial fusion phenotype, imaging
[1] = mutant cells, measured here: mutant cell line IC50

Question: What does the source list for `O=C(CSc1nnnn1-c1ccccc1)NCc1cccs1`?
Answer: IC50 (WT cells): > 25 µM (inactive); IC50 [1]: > 25 µM

Question: For `Cc1cccc(Cn2nc(-n3cccc3)c3c(C)cc(C)nc32)c1`, which IC50 (WT cells) is on record?
Answer: > 25 µM (inactive)

Question: What about the IC50 [1] of the same compound?
Answer: > 25 µM

Question: For `CC1CN(C(=O)N(C)C)CCN1C(=O)N(C)C` (centres undefined), which IC50 (WT cells) is on record?
Answer: > 25 µM (inactive)

Question: And the IC50 [1]?
Answer: > 25 µM

Question: For `CCCOP(=O)(OCCC)C(Nc1cccc(C(F)(F)F)c1)c1ccc(C)cc1` (centres undefined), which IC50 (WT cells) is on record?
Answer: 11.2 µM

Question: And the IC50 [1]?
Answer: > 25 µM

Question: With `COc1ccc(CN(C)C2c3ccccc3-c3ccccc32)cc1` as the compound, how does the IC50 (WT cells) read?
Answer: 16.7 µM

Question: And the IC50 [1]?
Answer: 17 µM

Question: For `CC1CC2=C(NC(=S)NC2c2cccc(F)c2)/C(=C/c2cccc(F)c2)C1` (centres undefined), which IC50 (WT cells) is on record?
Answer: 8.15 µM

Question: And the IC50 [1]?
Answer: > 25 µM

Question: Which IC50 (WT cells) does the source give for `CC(c1ccccc1)N(CCC(c1ccccc1)C1CCOC(C)(C)C1)C(=O)c1ccco1` (centres undefined) here?
Answer: 19.2 µM

Question: And the IC50 [1]?
Answer: > 25 µM

Question: Which IC50 (WT cells) does the source give for `CCCCOc1c(Br)cc(/C=N/O)cc1OCC` here?
Answer: > 25 µM (inactive)

Question: And the IC50 [1]?
Answer: > 25 µM

Question: Which IC50 (WT cells) does the source give for `COc1ccc(S(=O)(=O)N2CCCCCC2)cc1C(=O)OCc1c(C)noc1C` here?
Answer: > 25 µM (inactive)

Question: What about the IC50 [1] of the same compound?
Answer: > 25 µM

Question: Which results are given for `N#CCc1ccc(NS(=O)(=O)c2ccc(C3CCCCC3)cc2)cc1`?
Answer: IC50 (WT cells): 22.8 µM; IC50 [1]: > 25 µM

Question: Which IC50 (WT cells) does the source give for `Cc1[nH][nH]c(=O)c1C(c1c(C)[nH][nH]c1=O)c1cn(Cc2ccc(Cl)c(Cl)c2)c2ccccc12` here?
Answer: 5.68 µM

Question: What about the IC50 [1] of the same compound?
Answer: > 25 µM

Question: Which IC50 (WT cells) does the source give for `O=[N+]([O-])c1ccccc1S(=O)(=O)NCCC1=CCCCC1` here?
Answer: > 25 µM (inactive)

Question: What about the IC50 [1] of the same compound?
Answer: > 25 µM

Question: For `NC(=O)c1ccc(NC(=O)COC(=O)c2c3c(nc4ccccc24)/C(=C\c2ccc4c(c2)OCO4)CCC3)cc1`, which IC50 (WT cells) is on record?
Answer: 8.77 µM

Question: What about the IC50 [1] of the same compound?
Answer: > 25 µM

Question: With `COCCN(C(=S)Nc1ccc(C(C)C)cc1)C(C)c1cccs1` (centres undefined) as the compound, how does the IC50 (WT cells) read?
Answer: > 25 µM (inactive)

Question: What about the IC50 [1] of the same compound?
Answer: > 25 µM

Question: Which results are given for `Cn1c(=O)n(C)c2cc([N+](=O)[O-])c(N3CCN(S(=O)(=O)c4ccc(C(C)(C)C)cc4)CC3)cc21`?
Answer: IC50 (WT cells): 5.99 µM; IC50 [1]: > 25 µM

Question: For `O=C(CSc1ncn[nH]1)NCc1ccccc1`, which IC50 (WT cells) is on record?
Answer: > 25 µM (inactive)

Question: What about the IC50 [1] of the same compound?
Answer: > 25 µM

Question: For `CCn1cc(C(=O)NCCc2ccccc2)c(=O)c2cc(F)c(N3CCN(C)CC3)cc21`, which IC50 (WT cells) is on record?
Answer: > 25 µM (inactive)

Question: And the IC50 [1]?
Answer: > 25 µM

Question: For `O=C(NC(=S)NCCC1=CCCCC1)c1ccccc1Br`, which IC50 (WT cells) is on record?
Answer: 20.9 µM

Question: And the IC50 [1]?
Answer: > 25 µM

Question: Which results are given for `CCN1CCN(c2ccc(NC(=O)c3ccc4c(c3)OCO4)cc2)CC1`?
Answer: IC50 (WT cells): > 25 µM (inactive); IC50 [1]: > 25 µM

Question: Which IC50 (WT cells) does the source give for `CC1(C)C(=O)OC(c2cccn2-c2cccc([N+](=O)[O-])c2)C2(CCCCC2)C1=O` (centres undefined) here?
Answer: 9.07 µM

Question: What about the IC50 [1] of the same compound?
Answer: 11.1 µM

Question: What does the source list for `NC(=S)n1[nH]c(-c2ccc([N+](=O)[O-])cc2)c(N=Nc2ccc(Cl)cc2)c1=O`?
Answer: IC50 (WT cells): 8.34 µM; IC50 [1]: > 25 µM

Question: Which results are given for `CC1CCN(C(=O)/C=C/c2ccc(C(C)(C)C)cc2)CC1`?
Answer: IC50 (WT cells): > 25 µM (inactive); IC50 [1]: > 25 µM

Question: With `O=c1cc2c(nn1Cc1ccc(Cl)cc1Cl)-c1ccccc1CC2` as the compound, how does the IC50 (WT cells) read?
Answer: 10.6 µM

Question: What about the IC50 [1] of the same compound?
Answer: 17.8 µM

Question: Which IC50 (WT cells) does the source give for `c1ccc(N(c2ccccc2)c2nc(N3CCCC3)nc(-n3ccnc3)n2)cc1` here?
Answer: 15.5 µM

Question: What about the IC50 [1] of the same compound?
Answer: > 25 µM

Question: With `CCc1cc2c(=O)c(-c3cscn3)coc2cc1O` as the compound, how does the IC50 (WT cells) read?
Answer: > 25 µM (inactive)

Question: What about the IC50 [1] of the same compound?
Answer: > 25 µM

Question: Which results are given for `COc1ccc(C(C(=O)Nc2ccc(F)cc2)N(C(=O)Cn2nnc3ccccc32)C2CC2)cc1` (centres undefined)?
Answer: IC50 (WT cells): > 25 µM (inactive); IC50 [1]: > 25 µM

Question: With `CCOC(=O)C1=C(NC(=S)NC(=O)c2ccccc2)c2ccccc2CC12CCCC2` as the compound, how does the IC50 (WT cells) read?
Answer: 6.33 µM

Question: And the IC50 [1]?
Answer: > 25 µM

Question: Which IC50 (WT cells) does the source give for `O=C(Cc1ccc(Cl)cc1)Nc1ccccc1CO` here?
Answer: > 25 µM (inactive)

Question: And the IC50 [1]?
Answer: > 25 µM

Question: Which IC50 (WT cells) does the source give for `c1ccc(CNc2nc(-c3cccs3)nc3ccccc23)cc1` here?
Answer: > 25 µM (inactive)

Question: And the IC50 [1]?
Answer: > 25 µM

Question: With `O=c1oc(Nc2cccc(F)c2)nc2ccccc12` as the compound, how does the IC50 (WT cells) read?
Answer: > 25 µM (inactive)

Question: And the IC50 [1]?
Answer: > 25 µM

Question: With `O=C(CCc1ccccc1)Nc1ncc2c(n1)CCCC2=O` as the compound, how does the IC50 (WT cells) read?
Answer: > 25 µM (inactive)

Question: What about the IC50 [1] of the same compound?
Answer: > 25 µM

Question: For `O=S(=O)(Nc1ccc(O)c(Sc2nc3ccccc3s2)c1)c1cccc2ccccc12`, which IC50 (WT cells) is on record?
Answer: 10.8 µM

Question: And the IC50 [1]?
Answer: > 25 µM

Question: For `CCCC(NC(=S)NCC1CCCO1)C12CC3CC(CC(C3)C1)C2` (centres undefined), which IC50 (WT cells) is on record?
Answer: 7.52 µM

Question: What about the IC50 [1] of the same compound?
Answer: > 25 µM

Question: Which IC50 (WT cells) does the source give for `CCNc1nc(SCCOc2ccc(Cl)cc2Cl)nc(N(C)C)n1` here?
Answer: 8.3 µM

Question: What about the IC50 [1] of the same compound?
Answer: 23.8 µM

Question: Which IC50 (WT cells) does the source give for `Cc1cc(C(=O)Nn2c(C3CCCCC3)nc3ccccc3c2=O)ccc1[N+](=O)[O-]` here?
Answer: 16.7 µM

Question: What about the IC50 [1] of the same compound?
Answer: > 25 µM

Question: With `CCc1ccccc1N(C1=NCCCS1)S(=O)(=O)c1ccc(C(C)(C)C)cc1` as the compound, how does the IC50 (WT cells) read?
Answer: 7.58 µM

Question: What about the IC50 [1] of the same compound?
Answer: > 25 µM

Question: For `Cc1coc(C)c1C(=O)CC1(O)C(=O)Nc2cc(Cl)cc(Cl)c21` (centres undefined), which IC50 (WT cells) is on record?
Answer: > 25 µM (inactive)

Question: And the IC50 [1]?
Answer: > 25 µM

Question: With `Cc1nc2ccccc2nc(C)c1=NOCc1ccc(Cl)cc1Cl` as the compound, how does the IC50 (WT cells) read?
Answer: 24.2 µM

Question: And the IC50 [1]?
Answer: > 25 µM

Question: For `O=C(O)C1C2C=CC(C2)C1C(=O)Nc1ccc(C(=O)N2CCCCC2)cc1` (centres undefined), which IC50 (WT cells) is on record?
Answer: > 25 µM (inactive)

Question: And the IC50 [1]?
Answer: > 25 µM

Question: Which results are given for `C=CCn1c(SCC(=O)Nc2cccc(C(=O)OC)c2)nnc1C(C)NC(=O)c1cccs1` (centres undefined)?
Answer: IC50 (WT cells): > 25 µM (inactive); IC50 [1]: > 25 µM

Question: Which results are given for `O=C(COC(=O)C1(c2ccc(Cl)cc2)CCCC1)Nc1ncc(C(F)(F)F)cc1Cl`?
Answer: IC50 (WT cells): 18.2 µM; IC50 [1]: > 25 µM

Question: Which IC50 (WT cells) does the source give for `CC(C)Oc1ccc(C(=O)NC2(C(F)(F)F)NC(=O)N(CCCc3ccccc3)C2=O)cc1` (centres undefined) here?
Answer: 20.2 µM

Question: What about the IC50 [1] of the same compound?
Answer: > 25 µM

Question: Which IC50 (WT cells) does the source give for `CN1CCN(c2nc(-c3cccnc3)nc3ccccc23)CC1` here?
Answer: > 25 µM (inactive)

Question: And the IC50 [1]?
Answer: > 25 µM

Question: For `O=C(N/N=C/c1c(Cl)cccc1Cl)c1n[nH]c2c1CCCC2`, which IC50 (WT cells) is on record?
Answer: > 25 µM (inactive)

Question: And the IC50 [1]?
Answer: > 25 µM

Question: What does the source list for `C/C=C(/C(=C/C)c1ccc(O)cc1)c1ccc(O)cc1`?
Answer: IC50 (WT cells): 21 µM; IC50 [1]: > 25 µM

Question: Which results are given for `Cc1ccc2nc(-c3ccccc3)c(CN3CCN(c4ccccc4F)CC3)n2c1`?
Answer: IC50 (WT cells): 15.6 µM; IC50 [1]: > 25 µM

Question: Which IC50 (WT cells) does the source give for `COc1cc(/C=N/n2cnnc2)ccc1OCc1ccccc1` here?
Answer: > 25 µM (inactive)

Question: And the IC50 [1]?
Answer: > 25 µM

Question: With `FC(F)(F)c1cc(-c2ccco2)nc(NCc2ccc(Cl)cc2)n1` as the compound, how does the IC50 (WT cells) read?
Answer: 14.8 µM

Question: And the IC50 [1]?
Answer: > 25 µM

Question: With `CC(=O)Cc1nsc(NC(=O)c2ccc(-c3ccc(Cl)c(Cl)c3)o2)n1` as the compound, how does the IC50 (WT cells) read?
Answer: > 25 µM (inactive)

Question: And the IC50 [1]?
Answer: > 25 µM

Question: Which IC50 (WT cells) does the source give for `O=S(=O)(NCC(Nc1ccc(Cl)cc1)c1ccccc1)c1ccc(Cl)cc1` (centres undefined) here?
Answer: > 25 µM (inactive)

Question: And the IC50 [1]?
Answer: > 12.5 µM

Question: For `Clc1ccc2ncc(-c3nnnn3-c3ccccc3)c(-c3ccccc3)c2c1`, which IC50 (WT cells) is on record?
Answer: 15.7 µM

Question: And the IC50 [1]?
Answer: > 25 µM

Question: What does the source list for `CCOC(=O)c1c(C)[nH]c(C(=O)OCC(=O)Nc2cc(Cl)ccc2OC)c1C`?
Answer: IC50 (WT cells): > 25 µM (inactive); IC50 [1]: > 25 µM

Question: Which results are given for `C/C(N)=C(/C#N)C(=O)CSc1nnnn1-c1ccccc1`?
Answer: IC50 (WT cells): > 25 µM (inactive); IC50 [1]: > 25 µM

Question: For `NS(=O)(=O)c1ccc(N2N=C(c3ccccc3)CC2c2ccccc2)cc1` (centres undefined), which IC50 (WT cells) is on record?
Answer: 12.1 µM

Question: And the IC50 [1]?
Answer: > 25 µM

Question: Which results are given for `CC(C)SCc1cc(N2CCCC2)nc(-c2ccccc2)n1`?
Answer: IC50 (WT cells): 23.5 µM; IC50 [1]: > 25 µM

Question: With `CCN(CC)CCNC(=O)Cn1c(-c2ccccn2)nc2ccccc21` as the compound, how does the IC50 [1] read?
Answer: > 25 µM

Question: For `CCCCCCn1c(N2CCN(c3ccccc3)CC2)nc2c1c(=O)n(C)c(=O)n2C`, which IC50 (WT cells) is on record?
Answer: 19.9 µM

Question: And the IC50 [1]?
Answer: > 25 µM

Question: Which results are given for `O=c1cc(N2CCCCC2)c(-c2ccccc2)nn1Cc1ccc(F)cc1`?
Answer: IC50 (WT cells): 17.4 µM; IC50 [1]: > 25 µM

Question: Which results are given for `O=C(C1CCCCC1)N(Cc1ccccc1)c1ccccn1`?
Answer: IC50 (WT cells): > 25 µM (inactive); IC50 [1]: > 25 µM

Question: Which results are given for `Cc1ncsc1C(=O)Nc1nc2c(s1)CC(C)CC2` (centres undefined)?
Answer: IC50 (WT cells): > 25 µM (inactive); IC50 [1]: > 25 µM
